In US6921767B2, “Cycloalkyl alkanoic acids as integrin receptor antagonists derivatives” (Pharmacia Corporation, priority 2000, dated 2005):

Assay: IC50 test to confirm desired/undesired isomer (assay not specified)
Settings: qualitative outcome only, no number given

SMILES | tested for IC50 to confirm as desired / undesired compound (hydrochloride) | tested for IC50 to confirm as desired / undesired compound
Cl.O=C(O)CC1C(c2ccc(OCCc3ccc4c(n3)NCCC4)cc2)C1(Cl)Cl (single isomer, unassigned) [Example 85, first peak, (2,2-Dichloro-3-{4-[2-(5,6,7,8-tetrahydro-1,8-naphthyridin-2-yl)ethoxy]phenyl}cyclopropyl)acetic acid hydrochloride] | undesired isomer | 
CN1CCNc2nc(CCOc3ccc(C4CC4CC(=O)O)cc3)ccc21 (single isomer, unassigned; (-)) [Example 82, ((−)-2-{4-[2-(1-methyl-1,2,3,4-tetrahydropyrido[2,3-b]pyrazin-6-yl)ethoxy]phenyl}cyclopropyl)acetic acid] |  | undesired compound
Cl.O=C(O)CC1C(c2ccc(OCCc3ccc4c(n3)NCCC4)cc2)C1(Cl)Cl (single isomer, unassigned) [Example 85, second peak, (2,2-Dichloro-3-{4-[2-(5,6,7,8-tetrahydro-1,8-naphthyridin-2-yl)ethoxy]phenyl}cyclopropyl)acetic acid hydrochloride] | desired compound | 
CN1CCNc2nc(CCOc3ccc(C4CC4CC(=O)O)cc3)ccc21 (single isomer, unassigned; (+)) [Example 81, ((+)-2-{4-[2-(1-methyl-1,2,3,4-tetrahydropyrido[2,3-b]pyrazin-^6-yl)ethoxy]phenyl}cyclopropyl)acetic acid] |  | desired compound
